Source: patent US20080096807A1, “Cyclic vasoactive intestinal peptide receptor-2 agonists” (priority 2006, published 2008)
Bridge positions count the residues as written; N and C are the ends. Square brackets hold non-standard residues; d marks the D form. Peptide text beside a SMILES is read from it. ξ: configuration not given here. Thr(3ξ) = CC(O)[C@H](N)C(=O)O; αMeV = CC(C)[C@](C)(N)C(=O)O; Nle = CCCC[C@H](N)C(=O)O

Tests used:
[1] = tested on: methacholine-induced bronchospasm in mice; assay: Methacholine-induced bronchospasm in mice (whole body plethysmography, Penh); format: in vivo; settings: balb/c mice; drug by aerosol for 20 minutes before spasmogen challenge; relative to vehicle
Procedure: Respiratory function is measured in conscious, freely moving mice using whole body plethysmographs (WBP) from BUXCO Electronics, Inc. (Troy, N.Y.). WBP chambers allow animals to move freely within the chamber while respiratory function is measured. Eight chambers are used simultaneously so that eight mice can be measured at the same time. Each WBP chamber is connected to a bias flow regulator to supply a smooth, constant flow of fresh air during testing. A transducer attached to each chamber detects pressure changes that occur as the animal breathes. Pressure signals are amplified by a MAX II Strain Gauge preamplifier and analyzed by the Biosystem XA software supplied with the system (BUXCO Electronics, Inc.). Pressure changes within each chamber are calibrated prior to testing by injecting exactly 1 ml of air through the injection port and adjusting the computer signal accordingly. Mice are placed in the WBP chambers and allowed to acclimate for 10 minutes prior to testing. Testing is conducted by letting the animals move and breathe freely for 15 minutes while the following parameters are measured: Tidal Volume (ml), Respiratory Rate (breaths per minutes), Minute Volume (tidal volume multiplied by respiratory rate, ml/min), Inspiratory Time (sec), Expiratory Time (sec), Peak Inspiratory Flow (ml/sec), and Peak Expiratory Flow (ml/sec). Raw data for each of the parameters listed above are captured in the software database and averaged once per minute to give a total of 15 data points per parameter. The average of the 15 data points is reported. Accumulated Volume (ml) is a cumulative value (not averaged) and represents the sum of all tidal volumes for the 15-minute test session. The protocol is customized to include measurements before, during, and after a spasmogen challenge to determine Penh. Dose-response effects of a particular spasmogen (i.e. methacholine (MCh), acetylcholine, etc.) are obtained by giving nebulized aerosol (30-60 sec exposure) at approximately 5-10 min intervals. Mice (balb/c) are treated with vehicle (2% DMSO in H2O) or drug dissolved in 4 ml vehicle for 20 minutes by aerosol, as described above, prior to spasmogen challenge. Penh is determined at 5, 30 and 60 minutes post-challenge. Data are reported as percent inhibition of Penh relative to vehicle.

[2] = biological target: T1, VPAC2 receptor (Homo sapiens, UniProt P41587); assay: Sup-T1 cAMP agonist assay; format: cell-based; settings: human T-lymphoid cell line Sup-T1 expressing VPAC2 receptor; cAMP EIA; 5 min at room temperature; read-out: Sup-T1 cAMP EC50
T1 construct: The human T-lymphoid cell line Sup-Ti, which expresses the VPAC2 receptor; host or cells: Sup-T1 (Sup-Ti [sic]) human T-lymphoid cell line
T1 sequence (P41587 24-438): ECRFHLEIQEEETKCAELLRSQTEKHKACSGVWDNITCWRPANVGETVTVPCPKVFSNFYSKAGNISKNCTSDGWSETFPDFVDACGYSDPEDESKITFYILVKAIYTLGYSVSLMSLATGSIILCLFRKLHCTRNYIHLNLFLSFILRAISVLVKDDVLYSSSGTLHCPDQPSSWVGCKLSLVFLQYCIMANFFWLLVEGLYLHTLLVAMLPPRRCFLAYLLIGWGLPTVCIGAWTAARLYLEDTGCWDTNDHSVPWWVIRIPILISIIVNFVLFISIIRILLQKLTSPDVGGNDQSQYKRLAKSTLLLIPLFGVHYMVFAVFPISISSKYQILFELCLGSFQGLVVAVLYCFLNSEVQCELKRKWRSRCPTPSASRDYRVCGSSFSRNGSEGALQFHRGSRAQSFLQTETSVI
In short: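 Sup-T1 human T-lymphoid cells with endogenous VPAC2 (RPMI 1640, 25 mM HEPES, 10% FBS) were plated at 4×10^4 cells/well and exposed to compound for 5 min at room temperature. After lysis, cAMP was measured by enzyme immunoassay. EC50 came from a sigmoidal fit of 7-concentration dose-response data.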

[3] = tested on: LPS-induced lung inflammation in male C57BL/6 mice; assay: LPS-induced lung inflammation in male C57BL/6 mice (BAL neutrophilia); format: in vivo; settings: Dose 0.01%, BAL fluid neutrophilia
[4] = biological target: T2, human neutrophil elastase (Homo sapiens, UniProt P08246); assay: Peptide stability to neutrophil elastase (RP HPLC ESI MS); settings: halftime with human neutrophil elastase 1 to 2 μg/mL in PBS, ambient temperature, normalized to halftime of the reference standard
T2 sequence (P08246 30-247 limits assumed): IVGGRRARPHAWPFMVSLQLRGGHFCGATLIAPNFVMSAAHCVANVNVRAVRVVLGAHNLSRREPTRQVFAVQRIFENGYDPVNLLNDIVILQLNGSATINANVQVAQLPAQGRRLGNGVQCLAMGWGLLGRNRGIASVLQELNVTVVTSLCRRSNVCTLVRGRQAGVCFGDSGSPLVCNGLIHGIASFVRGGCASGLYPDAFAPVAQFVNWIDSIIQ

[5] = biological target: Ac-His-Ala-Asp-Ala-MeVal-Phe-Thr-Glu-Asn-Tyr-Thr-Lys-Leu-Arg-Lys-Gln-Nle-Ala-Ala-Lys-Lys-Tyr-Leu-Asn-Asp-Leu-Leu-Lys-Gly-Gly-Thr-NH2 (Artificial Sequence); settings: scale: relative to the halftime of the reference standard
[6] = biological target: Ac-His-Ala-Asp-Ala-MeVal-Phe-Thr-Glu-Asn-Tyr-Thr-Lys-Leu-Arg-Lys-Gln-Nle-Ala-Ala-Lys-Lys-Tyr-Leu-Asn-Asp-Leu-Lys-Lys-Gly-Gly-Thr-NH2 (Artificial Sequence); settings: scale: relative to the halftime of the reference standard
[7] = biological target: Ac-His-Ser-Asp-Ala-MeVal-Phe-Thr-Glu-Asn-Tyr-Thr-Lys-Leu-Arg-Lys-Arg-Nle-Ala-Ala-Lys-Lys-Tyr-Leu-Asn-Asp-Leu-Lys-Lys-Gly-Gly-Thr-NH2 (Artificial Sequence); settings: scale: relative to the halftime of the reference standard
[8] = biological target: Ac-His-Ser-Asp-Ala-MeVal-Phe-Thr-Glu-Asn-Tyr-thr-Lys-Leu-Arg-Lys-Gln-Nle-Ala-Ala-Lys-Lys-Tyr-Leu-Asn-Asp-Leu-Leu-Lys-Gly-Gly-Thr-NH2 (Artificial Sequence); settings: scale: relative to the halftime of the reference standard

Compound | Inhibition of Penh at 5 minutes post-challenge [1] | EC50 [2] [nM] | Inhibition of LPS-induced neutrophilia [3] | Relative elastase stability [4] | Relative elastase stability [5] | Relative elastase stability [6] | Relative elastase stability [7] | Relative elastase stability [8]
CCCC[C@H](NC(=O)[C@H](CCCNC(=N)N)NC(=O)[C@H](CCCCN)NC(=O)[C@H](CCCNC(=N)N)NC(=O)[C@H](CC(C)C)NC(=O)[C@H](CCCCN)NC(=O)[C@@H](NC(=O)[C@H](Cc1ccc(O)cc1)NC(=O)[C@H](CC(N)=O)NC(=O)[C@H](CCC(=O)O)NC(=O)[C@@H](NC(=O)[C@H](Cc1ccccc1)NC(=O)[C@H](CO)NC(=O)[C@H](C)NC(=O)[C@H](CC(=O)O)NC(=O)[C@H](CO)NC(=O)[C@H](Cc1c[nH]cn1)NC(C)=O)C(C)O)C(C)O)C(=O)N[C@@H](CCC(=O)O)C(=O)N[C@@H](C)C(=O)N[C@@H](CCCCN)C(=O)N[C@H]1CCCCNC(=O)C[C@@H](C(=O)N[C@@H](CC(C)C)C(=O)N[C@@H](CC(C)C)C(=O)N[C@@H](CCCCN)C(=O)NCC(=O)NCC(=O)N[C@H](C(N)=O)C(C)O)NC(=O)[C@H](CC(N)=O)NC(=O)[C@H](CC(C)C)NC(=O)[C@H](Cc2ccc(O)cc2)NC1=O (stereo partly shown) [Example 19] (Ac-HSDASF[Thr(3ξ)]ENY[Thr(3ξ)]KLRKR[Nle]EAKKYLNDLLKGG[Thr(3ξ)]-NH2; lactam 21-25) | + (+ >50%) | 68.4 | + (+ 10-30%) | 3.3 | – | – | – | –
CCCC[C@H](NC(=O)[C@H](CCC(N)=O)NC(=O)[C@H](CCCCN)NC(=O)[C@H](CCCNC(=N)N)NC(=O)[C@H](CC(C)C)NC(=O)[C@H](CCCCN)NC(=O)[C@@H](NC(=O)[C@H](Cc1ccc(O)cc1)NC(=O)[C@H](CC(N)=O)NC(=O)[C@H](CCC(=O)O)NC(=O)[C@@H](NC(=O)[C@H](Cc1ccccc1)NC(=O)[C@@](C)(NC(=O)[C@H](C)NC(=O)[C@H](CC(=O)O)NC(=O)[C@H](CO)NC(=O)[C@H](Cc1c[nH]cn1)NC(C)=O)C(C)C)C(C)O)C(C)O)C(=O)N[C@@H](C)C(=O)N[C@@H](C)C(=O)N[C@@H](CCCCN)C(=O)N[C@H]1CCCCNC(=O)C[C@@H](C(=O)N[C@@H](CC(C)C)C(=O)N[C@@H](CCCCN)C(=O)N[C@@H](CCCCN)C(=O)NCC(=O)NCC(=O)N[C@H](C(N)=O)C(C)O)NC(=O)[C@H](CC(N)=O)NC(=O)[C@H](CC(C)C)NC(=O)[C@H](Cc2ccc(O)cc2)NC1=O (stereo partly shown) [Example 6] (Ac-HSDA[αMeV]F[Thr(3ξ)]ENY[Thr(3ξ)]KLRKQ[Nle]AAKKYLNDLKKGG[Thr(3ξ)]-NH2; lactam 21-25) | ++ (++ <50%) | 2.35 | ++ (++ >30%) | 6 | – | – | – | –
CCCC[C@H](NC(=O)[C@H](CCC(N)=O)NC(=O)[C@H](CCCCN)NC(=O)[C@H](CCCNC(=N)N)NC(=O)[C@H](CC(C)C)NC(=O)[C@H](CCCCN)NC(=O)[C@@H](NC(=O)[C@H](Cc1ccc(O)cc1)NC(=O)[C@H](CC(N)=O)NC(=O)[C@H](CCC(=O)O)NC(=O)[C@@H](NC(=O)[C@H](Cc1ccccc1)NC(=O)[C@H](CO)NC(=O)[C@H](C)NC(=O)[C@H](CC(=O)O)NC(=O)[C@H](C)NC(=O)[C@H](Cc1c[nH]cn1)NC(C)=O)C(C)O)C(C)O)C(=O)N[C@@H](C)C(=O)N[C@@H](C)C(=O)N[C@@H](CCCCN)C(=O)N[C@H]1CCCCNC(=O)C[C@@H](C(=O)N[C@@H](CC(C)C)C(=O)N[C@@H](CCCCN)C(=O)N[C@@H](CCCCN)C(=O)NCC(=O)NCC(=O)N[C@H](C(N)=O)C(C)O)NC(=O)[C@H](CC(N)=O)NC(=O)[C@H](CC(C)C)NC(=O)[C@H](Cc2ccc(O)cc2)NC1=O (stereo partly shown) [Example 12] (Ac-HADASF[Thr(3ξ)]ENY[Thr(3ξ)]KLRKQ[Nle]AAKKYLNDLKKGG[Thr(3ξ)]-NH2; lactam 21-25) | + (+ >50%) | 7.4 | + (+ 10-30%) | 5.2 | – | – | – | –
CCCC[C@H](NC(=O)[C@H](CCCNC(=N)N)NC(=O)[C@H](CCCCN)NC(=O)[C@H](CCCNC(=N)N)NC(=O)[C@H](CC(C)C)NC(=O)[C@H](CCCCN)NC(=O)[C@@H](NC(=O)[C@H](Cc1ccc(O)cc1)NC(=O)[C@H](CC(N)=O)NC(=O)[C@H](CCC(=O)O)NC(=O)[C@@H](NC(=O)[C@H](Cc1ccccc1)NC(=O)[C@H](CO)NC(=O)[C@H](C)NC(=O)[C@H](CC(=O)O)NC(=O)[C@H](C)NC(=O)[C@H](Cc1c[nH]cn1)NC(C)=O)C(C)O)C(C)O)C(=O)N[C@@H](CCCCN)C(=O)N[C@@H](C)C(=O)N[C@@H](CCCCN)C(=O)N[C@H]1CCCCNC(=O)C[C@@H](C(=O)N[C@@H](CC(C)C)C(=O)N[C@@H](CCCCN)C(=O)N[C@@H](CCCCN)C(=O)NCC(=O)NCC(=O)N[C@H](C(N)=O)C(C)O)NC(=O)[C@H](CC(N)=O)NC(=O)[C@H](CC(C)C)NC(=O)[C@H](Cc2ccc(O)cc2)NC1=O (stereo partly shown) [Example 18] (Ac-HADASF[Thr(3ξ)]ENY[Thr(3ξ)]KLRKR[Nle]KAKKYLNDLKKGG[Thr(3ξ)]-NH2; lactam 21-25) | + (+ >50%) | 276 | – | 5.1 | – | – | – | –
Elastase (Human Neutrophil, Calbiochem, Cat # 324681) (from UniProt P08246) (enzyme) | – | – | – | – | 3.6 | 5.7 | 1.8 | 3.4
